Measurements: patent publication US20110293745A1, “AURORA KINASE INHIBITORS” (SUNESIS PHARMACEUTICALS, INC., priority 2008, published 2011)

Key:
MiaPaca2 = assay: Cell Proliferation ELISA, BrdU; type: cell-based; conditions: Homo sapiens, MIA PaCa-2; MiaPaca2 (Pancreatic), 96 hr
Experimental: Cellular proliferation was assessed using the Cell Proliferation ELISA, bromodeoxyuridine (BrdU) kit (Roche) including reagents, according to the kit protocol.

[1] = test system: HCT 116 colon cancer xenograft; assay: In vivo efficacy, mouse xenograft
Experimental: HCT 116 colon cancer cells [200 μL of a 2.5×10^7 cells/mL suspension (1:1 DPBS with cells:Matrigel)] were subcutaneously implanted in the right hind flank of female nu/nu athymic mice. After 7 days, when tumors reached an average volume of approximately 200 mm^3, animals were weighed, randomized by tumor volume (l×w×h×0.52), and assigned to the various study groups before initial dosing.
[…]. The animals on the twice-weekly schedule received compound on Days 1, 4, 8, 11, 15 and 18. […].
(§1) Percent TGI is then calculated with the following equation: […]
where TVt is the average tumor volume on Day 10 and TV, is the initial average tumor volume. ANOVA was performed to calculate statistical significance, defined as p<0.05.
(§2) Time To Endpoint (TTE) was calculated for each individual animal to reach the predetermined study end point where the tumor volume becomes 1200 mm^3 or 10% of body weight or a greater than 20% body weight loss for two sequential measurements. The TTE is calculated and the median value is recorded for the group. Tumor Growth Delay (TGD) is then calculated with the following equation:
TGD=median TTEtreatment−median TTEcontrol

[2] = test system: MDA-MB-231 breast cancer xenograft; assay: In vivo efficacy, mouse xenograft
Experimental: as §1
as §2, with “equation: […]” for “equation:”
MDA-MB-231 breast cancer cells [200 μL of a 2.5×10^7 cells/mL suspension (1:1 DPBS with cells:Matrigel)] were implanted subcutaneously in the right hind flank of mice. After 13 days, when tumors reached n average volume of approximately 95 mm^3, animals were weighed, randomized by tumor volume (l×w×h×0.52), and assigned to the various study groups before initial dosing.

[3] = test system: PC3 prostate tumor xenograft; assay: In vivo efficacy, mouse xenograft
Experimental: as §1
as §2, with “equation: […]” for “equation:”
PC3 prostate tumor fragments (1 mm^3) were implanted subcutaneously in the right hind flank of mice. After 21 days, when tumors reached a volume of approximately 120 mm^3, animals were weighed, randomized by tumor volume (l×w×h×0.52), and assigned to the various study groups before initial dosing.

[4] = test system: histone H3 phosphorylation in skin biopsies; assay: Clinical pharmacodynamics, skin punch biopsies; type: in vivo, human; conditions: Cycle 1, Day 1, 3-7 hours after start of infusion
Experimental: Clinical pharmacodynamic assessments were performed as follows. Skin punch biopsy samples were collected prior to (e.g., just prior to or up to 14 days prior to) treatment and during Cycle 1, Day 1 of treatment at between 3 and 7 hours after the start of the 3-hour infusion. Skin punch biopsy samples were analyzed for inhibition of histone H3 phosphorylation.

[5] = Mass balance, elimination, autoradiography and metabolites with 14C-label; type: in vivo; conditions: male rats, 14C-labeled Compound 1 IV bolus 50 mg/kg, total radioactivity
Experimental: Treated rats were further cannulated in femoral vein and the bile duct to allow for the evaluation of the rate and extent of elimination of total radioactivity from urine, bile, and feces. Total radioactivity was analyzed by liquid scintillation counting.
Preparation of samples for metabolite analysis was as follows. Plasma samples were extracted by protein precipitation with acetonitrile. The extraction was preformed by adding ice cold acetonitrile (3 parts) to plasma (1 part v/v). After the samples were mixed using a benchtop vortex mixer the samples were centrifuged, the supernatants were transferred to silanized glass tubes, evaporated to dryness under nitrogen, and reconstituted in 50/50 acetonitrile/water solution. Urine samples were directly injected. Bile samples containing radioactivity were diluted in water prior to injection.
Metabolites in plasma, urine, and bile were separated on a reverse phase HPLC column with an Agilent 1000 system (Santa Clara, Calif.).

[6] = HCT 116 (Colon), 75 mg/kg biw × 3
[7] = HCT 116 (Colon), 100 mg/kg biw × 3
[8] = HCT 116 (Colon), 150 mg/kg biw × 3

For `CS(=O)(=O)O.O=C(Nc1cccc(Cl)c1)Nc1ncc(CCNc2ncnc3ccsc23)s1` [Compound 1, 1-(3-chlorophenyl)-3-{5-[2-(thieno[3,2-d]pyrimidin-4-ylamino)ethyl]thiazo}-urea], the IC50 (MiaPaca2) was 9.1 nM, the “TGD” value ([1]; 100 mg/kg, qd × 5, 9 d off × 2) was 45 days and the “TGD” value ([1]; 125 mg/kg, Qw × 3) was 22.5 days. The “TGD” value ([1]; 150 mg/kg, biw × 3) was 32.5 days, the “% TGI” value [1, 6] was 67.5% and the TGD [1, 6] was 22 days. The “% TGI” value [1, 7] was 79.4%, the TGD [1, 7] was 25.1 days and the “% TGI” value [1, 8] was 95.6%. The TGD [1, 8] was 32.5 days, the “% TGI” value ([2]; 42.5 mg/kg biw × 3) was 20.6% and the TGD ([2]; 42.5 mg/kg biw × 3) was 3.5 days. For the same molecule, the “% TGI” value ([2]; 85 mg/kg biw × 3) was 19.2%, the TGD ([2]; 85 mg/kg biw × 3) was 4.0 days and the “% TGI” value ([2]; 170 mg/kg biw × 3) was 73.8%. For the same molecule, the TGD ([2]; 170 mg/kg biw × 3) was 14.1 days, the “% TGI” value ([3]; 42.5 mg/kg biw × 3) was 39.5% and the TGD ([3]; 42.5 mg/kg biw × 3) was 0 days. The “% TGI” value ([3]; 85 mg/kg biw × 3) was 63.6%, the TGD ([3]; 85 mg/kg biw × 3) was 12 days and the “% TGI” value ([3]; 170 mg/kg biw × 3) was 67.5%. For the same molecule, the TGD ([3]; 170 mg/kg biw × 3) was 25 days and the “doses at which inhibition of pHH3 was observed in skin biopsies of patients” value [4] was no less than 240 mg/m^2.

With `O=C(Nc1cccc(Cl)c1)Nc1ncc(CCNc2ncnc3ccsc23)s1` [Compound 2, 1-(3-chlorophenyl)-3-{5-[2-(thieno[3,2-d]pyrimidin-4-ylamino)ethyl]thiazol-2-yl}-urea] the “Mean cumulative % recovery” value ([5]; Bile, interval 0-8 hr) was 39.7%, the “Mean cumulative % recovery” value ([5]; Bile, interval 8-24 hr) was 68.5% and the “Mean cumulative % recovery” value ([5]; Bile, interval 24-48 hr) was 69.5%. The “Mean cumulative % recovery” value ([5]; Cumulative Total, 24 hr) was 89.7%, the “Mean cumulative % recovery” value ([5]; Cumulative Total, 48 hr) was 92.3% and the “Mean cumulative % recovery” value ([5]; Feces, interval 0-24 hr) was 11.8%. For the same molecule, the “Mean cumulative % recovery” value ([5]; Feces, interval 24-48 hr) was 13.2%, the “Mean cumulative % recovery” value ([5]; Urine, interval 0-8 hr) was 6.1% and the “Mean cumulative % recovery” value ([5]; Urine, interval 8-24 hr) was 9.4%. The “Mean cumulative % recovery” value ([5]; Urine, interval 24-48 hr) was 9.6%.
